Measurements reported in ChEMBL document CHEMBL1201862, “PubChem BioAssay data set” (2004).
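Protocol summary: plate cells (96-well), add compound at 5 concentrations, incubate 48 h, interpolate endpoints linearly. GI50: concentration for 50% inhibition of growth.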 The source made the active and inactive calls. Rule as the data show it: active = GI50 up to about 1.1 µM and inactive = higher.

Legend:
Assay in all cases: NCI anticancer screen, dose series, 48 h
SK-MEL-2 = test system: SK-MEL-2
SK-MEL-28 = test system: SK-MEL-28
IGROV-1 = test system: IGROV-1
HT-29 = test system: HT-29
DU-145 = test system: DU-145
LOX IMVI = test system: LOX IMVI
SK-MEL-5 = test system: SK-MEL-5
K562 = test system: K562
Hs-578T = test system: Hs-578T
PC-3 = test system: PC-3
HL-60 = test system: HL-60
SF-268 = test system: SF-268
MDA-N = test system: MDA-N
A498 = test system: A498
KM12 = test system: KM12
M14 = test system: M14
HOP-92 = test system: HOP-92
NCI-H522 = test system: NCI-H522
RPMI-8226 = test system: RPMI-8226
HOP-62 = test system: HOP-62
SNB-19 = test system: SNB-19
CCRF-CEM = test system: CCRF-CEM
OVCAR-3 = test system: OVCAR-3
T47D = test system: T47D
SN12C = test system: SN12C
786-0 = test system: 786-0
NCI/ADR-RES = test system: NCI/ADR-RES
ACHN = test system: ACHN
BT-549 = test system: BT-549
NCI-H460 = test system: NCI-H460
SK-OV-3 = test system: SK-OV-3
EKVX = test system: EKVX
RXF 393 = test system: RXF 393
SNB-75 = test system: SNB-75
Malme-3M = test system: Malme-3M
SW-620 = test system: SW-620
OVCAR-5 = test system: OVCAR-5
OVCAR-4 = test system: OVCAR-4
COLO 205 = test system: COLO 205
MOLT-4 = test system: MOLT-4
UO-31 = test system: UO-31
MCF7 = test system: MCF7
HCT-116 = test system: HCT-116
U-251 = test system: U-251
UACC-257 = test system: UACC-257
UACC-62 = test system: UACC-62
NCI-H226 = test system: NCI-H226
A549 = test system: A549
TK-10 = test system: TK-10
SF-295 = test system: SF-295
MDA-MB-435 = test system: MDA-MB-435
NCI-H23 = test system: NCI-H23
OVCAR-8 = test system: OVCAR-8
HCC 2998 = test system: HCC 2998
MDA-MB-231 = test system: MDA-MB-231
HCT-15 = test system: HCT-15
CAKI-1 = test system: CAKI-1
SF-539 = test system: SF-539

CCCCN(c1ccccc1)c1ncnc2c1cnn2C
GI50 (SK-MEL-2): 27.5 µM (inactive) | GI50 (SK-MEL-28): 38.6 µM (inactive) | GI50 (IGROV-1): 34.7 µM (inactive) | GI50 (HT-29): 29.9 µM (inactive) | GI50 (DU-145): 53.6 µM (inactive) | GI50 (LOX IMVI): 46.3 µM (inactive) | GI50 (SK-MEL-5): > 100 µM (inactive) | GI50 (K562): 28.2 µM (inactive) | GI50 (Hs-578T): 22.4 µM (inactive) | GI50 (PC-3): 27.5 µM (inactive) | GI50 (HL-60): 19.1 µM (inactive) | GI50 (SF-268): 34.8 µM (inactive) | GI50 (MDA-N): 42 µM (inactive) | GI50 (A498): 23.3 µM (inactive) | GI50 (KM12): 46 µM (inactive) | GI50 (M14): 48.2 µM (inactive) | GI50 (HOP-92): 25.7 µM (inactive) | GI50 (NCI-H522): 19.9 µM (inactive) | GI50 (RPMI-8226): 14.3 µM (inactive) | GI50 (HOP-62): 38.8 µM (inactive) | GI50 (SNB-19): 89.9 µM (inactive) | GI50 (CCRF-CEM): 21.3 µM (inactive) | GI50 (OVCAR-3): 24.8 µM (inactive) | GI50 (T47D): 20.2 µM (inactive) | GI50 (SN12C): 65 µM (inactive) | GI50 (786-0): 53.3 µM (inactive) | GI50 (NCI/ADR-RES): 22.5 µM (inactive) | GI50 (ACHN): 37.7 µM (inactive) | GI50 (BT-549): 20.3 µM (inactive) | GI50 (NCI-H460): 31.6 µM (inactive) | GI50 (SK-OV-3): 50.1 µM (inactive) | GI50 (EKVX): 31.8 µM (inactive) | GI50 (RXF 393): 23.4 µM (inactive) | GI50 (SNB-75): 11.7 µM (inactive) | GI50 (Malme-3M): 25.2 µM (inactive) | GI50 (SW-620): 29.2 µM (inactive) | GI50 (OVCAR-5): 47.4 µM (inactive) | GI50 (OVCAR-4): 27.1 µM (inactive) | GI50 (COLO 205): > 100 µM (inactive) | GI50 (MOLT-4): 8.69 µM (inactive) | GI50 (UO-31): 40.6 µM (inactive) | GI50 (MCF7): 32.4 µM (inactive) | GI50 (HCT-116): 40.6 µM (inactive) | GI50 (U-251): 44.2 µM (inactive) | GI50 (UACC-257): 28.7 µM (inactive) | GI50 (UACC-62): 31.2 µM (inactive) | GI50 (NCI-H226): > 100 µM (inactive) | GI50 (A549): 51.2 µM (inactive) | GI50 (TK-10): 39.2 µM (inactive) | GI50 (SF-295): 32.5 µM (inactive) | GI50 (MDA-MB-435): 37.5 µM (inactive) | GI50 (NCI-H23): 30.1 µM (inactive) | GI50 (OVCAR-8): 41.2 µM (inactive) | GI50 (HCC 2998): 36.8 µM (inactive) | GI50 (MDA-MB-231): 26.6 µM (inactive) | GI50 (HCT-15): 35.4 µM | GI50 (CAKI-1): 45.1 µM (inactive)

COc1cc(/C=C2\C[C@H]3[C@@H]4CC=C5C[C@@H](N6CCCC6)CC[C@]5(C)[C@H]4CC[C@]3(C)[C@H]2OC(C)=O)cc(OC)c1OC
GI50 (SK-MEL-2): 17.7 µM (inactive) | GI50 (SK-MEL-28): 19 µM (inactive) | GI50 (IGROV-1): 16.3 µM (inactive) | GI50 (HT-29): 10 µM (inactive) | GI50 (DU-145): 17.3 µM (inactive) | GI50 (SK-MEL-5): 15.1 µM (inactive) | GI50 (Hs-578T): 17.8 µM (inactive) | GI50 (PC-3): 14.2 µM (inactive) | GI50 (HL-60): 21.9 µM (inactive) | GI50 (SF-268): 14.6 µM (inactive) | GI50 (MDA-N): 10.9 µM (inactive) | GI50 (A498): 15.2 µM (inactive) | GI50 (KM12): 15.1 µM (inactive) | GI50 (M14): 15.8 µM (inactive) | GI50 (HOP-92): 10.3 µM (inactive) | GI50 (NCI-H522): 16.7 µM (inactive) | GI50 (RPMI-8226): 5.27 µM (inactive) | GI50 (HOP-62): 15.6 µM (inactive) | GI50 (SNB-19): 18.4 µM (inactive) | GI50 (CCRF-CEM): 12.9 µM (inactive) | GI50 (OVCAR-3): 15.5 µM (inactive) | GI50 (T47D): 20.3 µM (inactive) | GI50 (SN12C): 14 µM (inactive) | GI50 (786-0): 11.3 µM (inactive) | GI50 (NCI/ADR-RES): 16.3 µM (inactive) | GI50 (ACHN): 18.9 µM (inactive) | GI50 (BT-549): 14.9 µM (inactive) | GI50 (SK-OV-3): 15.3 µM (inactive) | GI50 (EKVX): 14.3 µM (inactive) | GI50 (RXF 393): 11.5 µM (inactive) | GI50 (SNB-75): 15.4 µM (inactive) | GI50 (Malme-3M): 21.5 µM (inactive) | GI50 (SW-620): 14.8 µM (inactive) | GI50 (OVCAR-5): 15.8 µM (inactive) | GI50 (OVCAR-4): 18.2 µM (inactive) | GI50 (COLO 205): 12.9 µM (inactive) | GI50 (MOLT-4): 6.38 µM (inactive) | GI50 (UO-31): 15 µM (inactive) | GI50 (MCF7): 15.9 µM (inactive) | GI50 (HCT-116): 15.5 µM (inactive) | GI50 (U-251): 15.8 µM (inactive) | GI50 (UACC-257): 19.6 µM (inactive) | GI50 (UACC-62): 17.5 µM (inactive) | GI50 (NCI-H226): 24.8 µM (inactive) | GI50 (A549): 15.3 µM (inactive) | GI50 (TK-10): 20.6 µM (inactive) | GI50 (SF-295): 12.8 µM (inactive) | GI50 (MDA-MB-435): 12.9 µM (inactive) | GI50 (NCI-H23): 15.2 µM (inactive) | GI50 (OVCAR-8): 15 µM (inactive) | GI50 (HCC 2998): 2.38 µM (inactive) | GI50 (MDA-MB-231): 16.3 µM (inactive) | GI50 (HCT-15): 12.6 µM | GI50 (CAKI-1): 17 µM (inactive)

CCN1CC2(C)CCC(OC)C34C5CC6CCC(O)(C5C(=O)O6)C(C(O)C23)C14 (configuration not stated)
GI50 (SK-MEL-2): > 100 µM (inactive) | GI50 (SK-MEL-28): > 100 µM (inactive) | GI50 (IGROV-1): > 100 µM (inactive) | GI50 (HT-29): > 100 µM (inactive) | GI50 (DU-145): > 100 µM (inactive) | GI50 (LOX IMVI): > 100 µM (inactive) | GI50 (SK-MEL-5): > 100 µM (inactive) | GI50 (K562): > 100 µM (inactive) | GI50 (Hs-578T): > 100 µM (inactive) | GI50 (PC-3): > 100 µM (inactive) | GI50 (HL-60): > 100 µM (inactive) | GI50 (SF-268): > 100 µM (inactive) | GI50 (MDA-N): > 100 µM (inactive) | GI50 (A498): > 100 µM (inactive) | GI50 (KM12): > 100 µM (inactive) | GI50 (M14): > 100 µM (inactive) | GI50 (HOP-92): > 100 µM (inactive) | GI50 (NCI-H522): > 100 µM (inactive) | GI50 (RPMI-8226): > 100 µM (inactive) | GI50 (SF-539): > 100 µM (inactive) | GI50 (HOP-62): > 100 µM (inactive) | GI50 (SNB-19): > 100 µM (inactive) | GI50 (CCRF-CEM): > 100 µM (inactive) | GI50 (OVCAR-3): > 100 µM (inactive) | GI50 (T47D): > 100 µM (inactive) | GI50 (786-0): > 100 µM (inactive) | GI50 (NCI/ADR-RES): > 100 µM (inactive) | GI50 (ACHN): > 100 µM (inactive) | GI50 (BT-549): > 100 µM (inactive) | GI50 (NCI-H460): > 100 µM (inactive) | GI50 (SK-OV-3): > 100 µM (inactive) | GI50 (EKVX): > 100 µM (inactive) | GI50 (RXF 393): > 100 µM (inactive) | GI50 (SNB-75): > 100 µM (inactive) | GI50 (Malme-3M): > 100 µM (inactive) | GI50 (SW-620): > 100 µM (inactive) | GI50 (OVCAR-5): > 100 µM (inactive) | GI50 (OVCAR-4): > 100 µM (inactive) | GI50 (COLO 205): > 100 µM (inactive) | GI50 (MOLT-4): > 100 µM (inactive) | GI50 (UO-31): > 100 µM (inactive) | GI50 (MCF7): > 100 µM (inactive) | GI50 (HCT-116): > 100 µM (inactive) | GI50 (U-251): > 100 µM (inactive) | GI50 (UACC-257): > 100 µM (inactive) | GI50 (UACC-62): > 100 µM (inactive) | GI50 (A549): > 100 µM (inactive) | GI50 (TK-10): > 100 µM (inactive) | GI50 (SF-295): > 100 µM (inactive) | GI50 (MDA-MB-435): > 100 µM (inactive) | GI50 (NCI-H23): > 100 µM (inactive) | GI50 (OVCAR-8): > 100 µM (inactive) | GI50 (HCC 2998): > 10 µM (inactive) | GI50 (MDA-MB-231): > 100 µM (inactive) | GI50 (HCT-15): > 100 µM | GI50 (CAKI-1): > 100 µM (inactive)
